Assay results taken from patent US20240252509A1, “SELF-PRESERVING COMPOSITIONS AND MULTI-USE DISPENSERS FOR ADMINISTERING ALPHA-1062” (priority 2021, published 2024).

Assays:
[1] = test system: Aspergillus brasiliensis (ATCC No. 16404); test: USP 51 Preservative Challenge Test, A. brasiliensis; assay type: cell-based; details: A. brasiliensis ATCC 16404, 82 mg/mL solution in water
Experimental: (§1) In order to assess the anti-microbial properties of Alpha-1062, the USP (US Pharmacopeia) Chapter 51 Preservative Challenge Test (USP 51) was employed. The USP 51 is a common method used to gauge preservative effectiveness. Much like a Preservative Challenge Screen, it is used to evaluate the effect of preservatives in cosmetics, personal care products, and drug products. Preservatives are typically antimicrobial ingredients that are added to aqueous product formulations to help maintain the safety of the product by inhibiting the growth and reducing the number of microbial contaminants.
(§2) In the context of the present invention, Alpha-1062 (in the form of the gluconate salt) was assessed in place of (as) a preservative. No additional preservative was added to the Alpha-1062 gluconate preparation, rather an anti-microbial effect of the agent itself (Alpha-1062) was assessed. Alpha-1062 is therefore the anti-microbial agent in the assay and experiments described below.
(§3) Cultures of the following microorganisms were applied, as per standard guidelines for USP 51: • Candida albicans (ATCC No. 10231), • Aspergillus brasiliensis (ATCC No. 16404), • Escherichia coli (ATCC No. 8739), • Pseudomonas aeruginosa (ATCC No. 9027), and • Staphylococcus aureus (ATCC No. 6538). […]
(§4) The inoculated containers were incubated at 22.5±2.5° C. and each container was sampled at the appropriate intervals, as specified in Table 3. Any changes observed in the appearance of the culture was recorded at these intervals. By using the plate-count procedure, the number of CFU present in each test preparation was determined for the applicable intervals.
(§5) An inactivator (neutralizer) of the specific antimicrobial was incorporated in the plate count or in the appropriate dilution prepared for plating. These conditions were determined in the validation study for that sample based upon the conditions of media and microbial recovery incubation times listed in Table 2. Using the calculated concentrations of CFU per mL present at the start of the test, the change in log 10 values of the concentration of CFU per mL for each microorganism was calculated at the applicable test intervals, and the changes were expressed in terms of log reductions.
(§6) The requirements for antimicrobial effectiveness are met if the criteria specified under Table 3 are met. No increase is defined as not more than 0.5 log 10 unit higher than the previous value measured. […]
(§7) The USP Criteria for Category 2 were employed in order to determine the presence of an anti-microbial effect. […] For yeast and molds, an antimicrobial effect is evident when no increase from the initial calculated count is determined at 14 and 28 days.

[2] = test system: Candida albicans (ATCC No. 10231); test: USP 51 Preservative Challenge Test, C. albicans; assay type: cell-based; details: C. albicans ATCC 10231, 82 mg/mL solution in water
Experimental: as §1, §2, §3, §4, §5, §6, §7

[3] = salts described in WO 2014/016430; cited from earlier work
[4] = test system: all 5 organisms tested in the USP 51; test: USP 51 test, overall assessment against Category 2 criteria; assay type: cell-based; details: 82 mg/mL solution in water, USP Criteria for Category 2
Experimental: as §1
In the context of the present invention, Alpha-1062 (in the form of the gluconate salt) was assessed in place of (as) a preservative. No additional preservative was added to the Alpha-1062 gluconate preparation, rather an anti-microbial effect of the agent itself (Alpha-1062) was assessed. […]
as §6, §7

[5] = test system: Escherichia coli (ATCC No. 8739); test: USP 51 Preservative Challenge Test, E. coli; assay type: cell-based; details: E. coli ATCC 8739, 82 mg/mL solution in water
Experimental: as §1, §2, §3, §4, §5, §6, §7

[6] = test system: Pseudomonas aeruginosa (ATCC No. 9027); test: USP 51 Preservative Challenge Test, P. aeruginosa; assay type: cell-based; details: P. aeruginosa ATCC 9027, 82 mg/mL solution in water
Experimental: as §1, §2, §3, §4, §5, §6, §7

[7] = test system: Staphylococcus aureus (ATCC No. 6538); test: USP 51 Preservative Challenge Test, S. aureus; assay type: cell-based; details: S. aureus ATCC 6538, 82 mg/mL solution in water
Experimental: as §1, §2, §3, §4, §5, §6, §7

[8] = Day 14, log10 reduction from initial count
[9] = Day 28, log10 reduction from initial count

## COc1ccc2c3c1O[C@H]1C[C@@H](OC(=O)c4ccccc4)C=C[C@@]31CCN(C)C2 [Alpha-1062 Gluconate]
[1]; Day 14, initial 2.2 × 10^5 CFU/mL
  CFU/mL Day 14: 1.6 × 10^2 CFU/mL
[1]; [8]
  Log Reduction Day 14: 3.1
[1]; Day 28, initial 2.2 × 10^5 CFU/mL
  CFU/mL Day 28: 1.5 × 10^2 CFU/mL
[1]; [9]
  Log Reduction Day 28: 3.1
[2]; Day 14, initial 6.7 × 10^5 CFU/mL
  CFU/mL Day 14: <10 CFU/mL
[2]; [8]
  Log Reduction Day 14: 4.8
[2]; Day 28, initial 6.7 × 10^5 CFU/mL
  CFU/mL Day 28: <10 CFU/mL
[2]; [9]
  Log Reduction Day 28: 4.8
[3]
  solubility in water: above 10 % weight per volume (w/v)
[4]
  anti-microbial effect in the USP 51: strong anti-microbial effect
[5]; Day 14, 22.5±2.5° C., initial 9.1 × 10^5 CFU/mL
  CFU/mL Day 14: <10 CFU/mL
[5]; [8]
  Log Reduction Day 14: 5.0
[5]; Day 28, initial 9.1 × 10^5 CFU/mL
  CFU/mL Day 28: <10 CFU/mL
[5]; [9]
  Log Reduction Day 28: 5.0
[6]; Day 14, initial 2.9 × 10^5 CFU/mL
  CFU/mL Day 14: <10 CFU/mL
[6]; [8]
  Log Reduction Day 14: 4.5
[6]; Day 28, initial 2.9 × 10^5 CFU/mL
  CFU/mL Day 28: <10 CFU/mL
[6]; [9]
  Log Reduction Day 28: 4.5
[7]; Day 14, initial 4.0 × 10^5 CFU/mL
  CFU/mL Day 14: <10 CFU/mL
[7]; [8]
  Log Reduction Day 14: 4.6
[7]; Day 28, initial 4.0 × 10^5 CFU/mL
  CFU/mL Day 28: <10 CFU/mL
[7]; [9]
  Log Reduction Day 28: 4.6
